Each compound was assayed against hCB1R (Homo sapiens, UniProt P21554) (assay: In vitro functional assay (FLIPR, intracellular Ca2+) with recombinant HEK293 cells, CB1). Conditions: recombinant HEK293 cells expressing CB1 and Galpha16; 20 min preincubation, then reference agonist; Ca2+ change; read-out: hCB1R: FLIPR; IC50.
hCB1R, sequence (P21554 whole entry): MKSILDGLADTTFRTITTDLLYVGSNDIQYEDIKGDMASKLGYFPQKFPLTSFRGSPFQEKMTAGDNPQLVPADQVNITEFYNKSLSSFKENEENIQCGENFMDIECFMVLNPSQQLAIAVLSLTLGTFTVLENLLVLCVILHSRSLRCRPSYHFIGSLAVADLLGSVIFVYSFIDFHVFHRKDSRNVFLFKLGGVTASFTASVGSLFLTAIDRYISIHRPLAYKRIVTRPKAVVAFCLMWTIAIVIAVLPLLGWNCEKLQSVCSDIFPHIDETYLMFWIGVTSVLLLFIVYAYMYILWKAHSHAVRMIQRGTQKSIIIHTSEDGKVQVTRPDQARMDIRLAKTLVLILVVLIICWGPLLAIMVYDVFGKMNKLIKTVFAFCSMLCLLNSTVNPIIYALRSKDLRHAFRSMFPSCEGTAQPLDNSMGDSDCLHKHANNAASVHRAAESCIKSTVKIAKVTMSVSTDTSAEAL
Assay type: cell-based
Parameters: expressed in transfected cells; host or cells: HEK293
Description: In Vitro Functional Assays with Recombinant Cells:

SMILES	IC50 [nM]
COC(=O)c1ccc(Nc2ccccc2CN2C(=O)N(c3ccc(C#N)c(C(F)(F)F)c3)C(=O)C2(C)C)c(F)c1 [Example 72, methyl 4-{2-[3-(4-cyano-3-trifluoromethylphenyl)-5,5-dimethyl-2,4-dioxoimidazolidin-1-ylmethyl]phenylamino}-3-fluorobenzoate]	24
Cc1cc(N2C(=O)N(Cc3ccc(F)cc3Nc3ccc(C(=O)O)cc3)C(C)(C)C2=O)ccc1C#N [Example 166, 4-{2-[3-(4-cyano-3-methylphenyl)-5,5-dimethyl-2,4-dioxoimidazolidin-1-ylmethyl]-5-fluorophenylamino}benzoic acid]	76
CC1(C)C(=O)N(c2ccc(C#N)c(C(F)(F)F)c2)C(=O)N1Cc1ccccc1Nc1ccc(C(=O)O)cc1F [Example 80, 4-{2-[3-(4-cyano-3-trifluoromethylphenyl)-5,5-dimethyl-2,4-dioxoimidazolidin-1-ylmethyl]phenylamino}-3-fluorobenzoic acid]	33
COC(=O)c1ccc(Nc2cc(C(F)(F)F)ccc2CN2C(=O)N(c3ccc(C#N)c(C(F)(F)F)c3)C(=O)C2(C)C)cc1 [Example 106, methyl 4-{2-[3-(4-cyano-3-trifluoromethylphenyl)-5,5-dimethyl-2,4-dioxoimidazolidin-1-ylmethyl]-5-trifluoromethylphenylamino}benzoate]	12
CC1(C)C(=O)N(c2ccc(F)c(C(F)(F)F)c2)C(=O)N1Cc1ccc(F)cc1Nc1ccc(F)nc1 [Example 254, 1-[4-Fluoro-2-(6-fluoropyridin-3-ylamino)benzyl]-3-(4-fluoro-3-trifluoromethylphenyl)-5,5-dimethylimidazolidine-2,4-dione]	2
CC1(C)C(=O)N(c2ccc(C#N)c(C(F)(F)F)c2)C(=O)N1Cc1cccc(Cl)c1Nc1ccc(Cl)cc1 [Example 43, 4-{3-[5-chloro-6-(4-chlorophenylamino)benzyl]-4,4-dimethyl-2,5-dioxoimidazolidin-1-yl}-2-trifluoromethylbenzonitrile]	77
CC1(C)C(=O)N(c2ccc(C#N)c(C(F)(F)F)c2)C(=O)N1Cc1ccccc1Nc1ccc(C#N)c(C(F)(F)F)c1 [Example 3, 4-{3-[2-(4-cyano-3-trifluoromethylphenylamino)benzyl]-4,4-dimethyl-2,5-dioxoimidazolidin-1-yl}-2-trifluoromethylbenzonitrile]	22
CC1(C)C(=O)N(c2ccc(C#N)c(C(F)(F)F)c2)C(=O)N1Cc1ccccc1Nc1ccc2c(c1)C(=O)OC2 [Example 200, 4-{4,4-dimethyl-2,5-dioxo-3-[2-(3-oxo-1,3-dihydroisobenzofuran-5-ylamino)benzyl]imidazolidin-1-yl}-2-trifluoromethylbenzonitrile]	8
CC(C)(C)c1cc(N2C(=O)N(Cc3ccc(F)cc3Nc3ccc(F)cc3F)C(C)(C)C2=O)ccc1C#N [Example 221, 2-tert-butyl-4-{3-[2-(2,4-difluorophenylamino)-4-fluorobenzyl]-4,4-dimethyl-2,5-dioxoimidazolidin-1-yl}benzonitrile]	10
CC1(C)C(=O)N(c2ccc(C#N)c(C(F)(F)F)c2)C(=O)N1Cc1ccccc1Nc1ccc(O)nn1 [Example 198, 4-{3-[2-(6-Hydroxypyridazin-3-ylamino)benzyl]-4,4-dimethyl-2,5-dioxoimidazolidin-1-yl}-2-trifluoromethylbenzonitrile trifluoroacetic acid]	23
COC(=O)CN(CC(=O)OC)c1ccc(Nc2ccccc2CN2C(=O)N(c3ccc(C#N)c(C(F)(F)F)c3)C(=O)C2(C)C)cc1 [Example 178]	4
CC1(C)C(=O)N(c2ccc(C#N)c(C(F)(F)F)c2)C(=O)N1Cc1ccccc1Nc1ccc(O)cc1 [Example 135, 4-{3-[2-(4-Hydroxyphenylamino)benzyl]-4,4-dimethyl-2,5-dioxoimidazolidin-1-yl}-2-trifluoromethylbenzonitrile]	1
CC1(C)C(=O)N(c2ccc(C#N)c(C(F)(F)F)c2)C(=O)N1Cc1cc(Cl)ccc1Nc1ccc(F)cc1 [Example 41, 4-{3-[5-Chloro-2-(4-fluorophenylamino)benzyl]-4,4-dimethyl-2,5-dioxoimidazolidin-1-yl}-2-trifluoromethylbenzonitrile]	28
CC(C(=O)O)(C(=O)O)c1ccc(Nc2ccccc2CN2C(=O)N(c3ccc(C#N)c(C(F)(F)F)c3)C(=O)C2(C)C)cc1 [Example 233, 2-(4-{2-[3-(4-Cyano-3-trifluoromethylphenyl)-5,5-dimethyl-2,4-dioxoimidazolidin-1-ylmethyl]phenylamino}phenyl)-2-methylmalonic acid]	22
CC1(C)C(=O)N(c2ccc(C#N)c(C(F)(F)F)c2)C(=O)N1Cc1cc(Cl)cc(Cl)c1Nc1ccc(Cl)cc1 [Example 40, 4-{3-[3,5-dichloro-6-(4-chlorophenylamino)benzyl]-4,4-dimethyl-2,5-dioxoimidazolidin-1-yl}-2-trifluoromethylbenzonitrile]	30
CC1(C)C(=O)N(c2ccc(C#N)c(C(F)(F)F)c2)C(=O)N1Cc1ccc(Cl)cc1Nc1ccc(C(=O)O)cc1 [Example 131, 4-{5-chloro-2-[3-(4-cyano-3-trifluoromethylphenyl)-5,5-dimethyl-2,4-dioxoimidazolidin-1-ylmethyl]phenylamino}benzoic acid]	15
CC1(C)C(=O)N(c2ccc(C#N)c(-c3ccc(Cl)cc3)c2)C(=O)N1Cc1ccc(F)cc1Nc1ccc(C(=O)O)cc1 [Example 228, 4-{2-[3-(4′-chloro-6-cyanobiphenyl-3-yl)-5,5-dimethyl-2,4-dioxoimidazolidin-1-ylmethyl]-5-fluorophenylamino}benzoic acid]	61
COC(=O)c1ccc(Nc2cc(F)ccc2CN2C(=O)N(c3ccc(C#N)c(C4CC4)c3)C(=O)C2(C)C)cc1 [Example 158, Methyl 4-{2-[3-(4-cyano-3-cyclopropylphenyl)-5,5-dimethyl-2,4-dioxoimidazolidin-1-ylmethyl]-5-fluorophenylamino}benzoate]	9
CC1(C)C(=O)N(c2ccc(C#N)c(-c3ccc(F)cc3)c2)C(=O)N1Cc1ccc(F)cc1Nc1ccc(F)cc1F [Example 253, 5-{3-[2-(2,4-Difluorophenylamino)-4-fluorobenzyl]-4,4-dimethyl-2,5-dioxoimidazolidin-1-yl}-4′-fluorobiphenyl-2-carbonitrile]	29
COc1ncc(Nc2ccccc2CN2C(=O)N(c3ccc(C#N)c(C(F)(F)F)c3)C(=O)C2(C)C)cn1 [Example 180, 4-{3-[2-(2-methoxypyrimidin-5-ylamino)benzyl]-4,4-dimethyl-2,5-dioxoimidazolidin-1-yl}-2-trifluoromethylbenzonitrile]	1
COC(=O)c1ccc(Nc2cc(F)ccc2CN2C(=O)N(c3ccc(F)c(C(F)(F)F)c3)C(=O)C2(C)C)cc1 [Example 154, Methyl 4-{5-fluoro-2-[3-(4-fluoro-3-trifluoromethylphenyl)-5,5-dimethyl-2,4-dioxoimidazolidin-1-ylmethyl]phenylamino}benzoate]	8
COC(=O)C1=C[C@@H](OC(C)=O)[C@H](OC(C)=O)[C@@H](Oc2ccc(Nc3ccccc3CN3C(=O)N(c4ccc(C#N)c(C(F)(F)F)c4)C(=O)C3(C)C)cc2)O1 [Example 197, methyl (4R,5S,6S)-4,5-diacetoxy-6-(4-{2-[3-(4-cyano-3-trifluoromethylphenyl)-5,5-dimethyl-2,4-dioxoimidazolidin-1-ylmethyl]phenylamino}phenoxy)-5,6-dihydro-4H-pyran-2-carboxylate]	19
CC1(C)C(=O)N(c2ccc(C#N)c(C(F)(F)F)c2)C(=O)N1Cc1ccccc1Nc1ccc(C(C(=O)O)C(=O)O)cc1 [Example 238, 2-(4-{2-[3-(4-cyano-3-trifluoromethylphenyl)-5,5-dimethyl-2,4-dioxoimidazolidin-1-ylmethyl]phenylamino}phenyl)malonic acid]	10
Cc1cc(N2C(=O)N(Cc3ccc(F)cc3Nc3ccc(C(N)=O)cc3)C(C)(C)C2=O)ccc1C#N [Example 190, 4-{2-[3-(4-Cyano-3-methylphenyl)-5,5-dimethyl-2,4-dioxoimidazolidin-1-ylmethyl]-5-fluorophenylamino}benzamide]	76
CC1(C)C(=O)N(c2ccc(C#N)c(C(F)(F)F)c2)C(=O)N1Cc1ccccc1Nc1ccc2cc(C(=O)O)ccc2c1 [Example 209, 6-{2-[3-(4-cyano-3-trifluoromethylphenyl)-5,5-dimethyl-2,4-dioxoimidazolidin-1-ylmethyl]phenylamino}naphthalene-2-carboxylic acid]	62
COC(=O)C(Cc1ccc(Nc2ccccc2CN2C(=O)N(c3ccc(C#N)c(C(F)(F)F)c3)C(=O)C2(C)C)cc1)C(=O)OC [Example 232, Dimethyl 2-(4-{2-[3-(4-cyano-3-trifluoromethylphenyl)-5,5-dimethyl-2,4-dioxoimidazolidin-1-ylmethyl]phenylamino}benzyl)malonate]	112
COC(=O)C1=C[C@@H](O)[C@H](O)[C@@H](Oc2ccc(Nc3ccccc3CN3C(=O)N(c4ccc(C#N)c(C(F)(F)F)c4)C(=O)C3(C)C)cc2)O1 [Example 145, methyl (4R,5S,6S)-6-(4-{2-[3-(4-cyano-3-trifluoromethylphenyl)-5,5-dimethyl-2,4-dioxoimidazolidin-1-ylmethyl]phenylamino}phenoxy)-4,5-dihydroxy-5,6-dihydro-4H-pyran-2-carboxylate]	14
CC1(C)C(=O)N(c2ccc(C#N)c(C(F)(F)F)c2)C(=O)N1Cc1ccccc1Nc1ccc(S(C)(=O)=O)cc1Cl [Example 14, 4-{3-[2-(2-chloro-4-methylsulfonylphenylamino)benzyl]-4,4-dimethyl-2,5-dioxoimidazolidin-1-yl}-2-trifluoromethylbenzonitrile]	108
Cc1cnccc1Nc1ccccc1CN1C(=O)N(c2ccc(C#N)c(C(F)(F)F)c2)C(=O)C1(C)C [Example 181, 4-{4,4-dimethyl-3-[2-(3-methylpyridin-4-ylamino)benzyl]-2,5-dioxoimidazolidin-1-yl}-2-trifluoromethylbenzonitrile]	8

Source: patent US7759366B2 (Sanofi-Aventis, priority 2006, dated 2010)
